Test results: patent US11420961B2, “Heterocyclic compounds” (Hoffmann-La Roche Inc., priority 2017, dated 2022)

Key:
MAGL = target: T1, MAGL (Homo sapiens, UniProt Q99685); test: 2-AG assay: MAGL inhibitory activity by hydrolysis of 2-arachidonoylglycerol to arachidonic acid, mass spectrometry; format: biochemical; details: 2-AG assay (values marked [a])
T1 sequence (Q99685 1-303): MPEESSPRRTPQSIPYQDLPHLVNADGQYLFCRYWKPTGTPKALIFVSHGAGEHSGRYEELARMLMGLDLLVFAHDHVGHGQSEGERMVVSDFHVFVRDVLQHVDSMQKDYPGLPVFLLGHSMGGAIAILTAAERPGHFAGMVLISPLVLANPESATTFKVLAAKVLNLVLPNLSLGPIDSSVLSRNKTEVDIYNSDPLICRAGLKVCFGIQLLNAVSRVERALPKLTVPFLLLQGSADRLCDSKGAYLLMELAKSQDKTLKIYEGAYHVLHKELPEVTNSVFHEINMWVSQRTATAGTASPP
Method: Alternatively, compounds were profiled for MAGL inhibitory activity by determining the enzymatic activity by following the hydrolysis of the natural substrate, 2-arachidonoylglycerol, resulting in arachidonic acid, which can be followed by mass spectrometry. This assay is hereinafter abbreviated “2-AG assay”.
The 2-AG assay was carried out in 384 well assay plates (PP, Greiner Cat #784201) in a total volume of 20 μL. Compound dilutions were made in 100% DMSO (VWR Chemicals 23500.297) in a polypropylene plate in 3-fold dilution steps to give a final concentration range in the assay from 12.5 μM to […]. 0.25 μL compound dilutions (100% DMSO) were added to 9 μL MAGL in assay buffer (50 mM TRIS (GIBCO, 15567-027), 1 mM EDTA (Fluka, 03690-100 ml), 0.01% (v/v) Tween. After shaking, the plate was incubated for 15 min at RT. To start the reaction, 10 μL 2-arachidonoylglycerol in assay buffer was added. The final concentrations in the assay was […] and 8 μM 2-arachidonoylglyerol. After shaking and 30 min incubation at RT, the reaction was quenched by the addition of 40 μL of acetonitrile containing 4 μM of d8-arachidonic acid. The amount of arachidonic acid was traced by an online SPE system (Agilent Rapidfire) coupled to a triple quadrupole mass spectrometer (Agilent 6460). A C18 SPE cartridge (G9205A) was used in an acetonitrile/water liquid setup. The mass spectrometer was operated in negative electrospray mode following the mass transitions 303.1→259.1 for arachidonic acid and 311.1→267.0 for d8-arachidonic acid. The activity of the compounds was calculated based on the ratio of intensities [arachidonic acid/d8-arachidonic acid].

[1] = target: T2, MAGL (recombinant wild-type) (Homo sapiens, UniProt Q99685); test: 4-NPA assay: MAGL inhibitory activity by hydrolysis of 4-nitrophenylacetate, absorbance at 405 nm; format: biochemical; details: 4-NPA assay (values without footnote [a])
T2 sequence (Q99685 1-303): T1 sequence (Q99685 1-303)
How it was run: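 Compound (final 25 μM to 1.7 nM, 3-fold steps) was preincubated 15 min at RT with 1 nM MAGL in 50 mM Tris, 1 mM EDTA, then 300 μM 4-nitrophenylacetate was added. A405 was read after 5 min and again 80 min later at RT, and activity was taken as the difference between the two reads.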

IC50 (MAGL) [nM]	IC50 [1] [nM]	Compound
0.11	–	COc1ccc(C(c2ccccc2)C2CCN(C(=O)c3ccc4c(c3)NC(=O)CO4)CC2)cc1OCCF (single isomer, unassigned) [Example 134, 6-[4-[(S or R)-3-(2-Fluoroethoxy)-4-methoxy-phenyl-phenyl-methyl]piperidine-1-carbonyl]-4H-1,4-benzoxazin-3-one]
182	–	COc1cccc(C(c2ccccc2)C2CN(C(=O)c3ccc4c(c3)NC(=O)CO4)C2)c1 (stereo not drawn) [Example 131, 6-[3-[(3-Methoxyphenyl)-phenyl-methyl]azetidine-1-carbonyl]-4H-1,4-benzoxazin-3-one]
0.62	–	Cn1cc(C(c2ccccc2)C2CCN(C(=O)c3ccc4c(c3)NC(=O)CO4)CC2)cn1 (single isomer, unassigned) [Example 140, 6-[4-[(S or R)-(1-Methylpyrazol-4-yl)-phenyl-methyl]piperidine-1-carbonyl]-4H-1,4-benzoxazin-3-one]
0.17	–	COc1cc(C(c2ccccc2)C2CCN(C(=O)c3ccc4c(c3)NC(=O)CO4)CC2)ccc1OCCF (single isomer, unassigned) [Example 139, 6-[4-[(R or S)-[4-(2-Fluoroethoxy)-3-methoxy-phenyl]-phenyl-methyl]piperidine-1-carbonyl]-4H-1,4-benzoxazin-3-one]
0.66	–	Cn1ccc(C(c2ccccc2)C2CCN(C(=O)c3ccc4c(c3)NC(=O)CO4)CC2)cc1=O (single isomer, unassigned) [Example 142, 6-[4-[(S or R)-(1-Methyl-2-oxo-4-pyridyl)-phenyl-methyl]piperidine-1-carbonyl]-4H-1,4-benzoxazin-3-one]
25.1	–	CS(=O)(=O)c1ccc(C(c2ccccc2)C2CCN(C(=O)c3ccc4c(c3)NC(=O)CO4)CC2)cc1 (single isomer, unassigned) [Example 133, 6-[4-[(R or S)-(4-Methylsulfonylphenyl)-phenyl-methyl]piperidine-1-carbonyl]-4H-1,4-benzoxazin-3-one]
0.27	–	CS(=O)(=O)c1ccc(C(c2ccccc2)C2CCN(C(=O)c3ccc4c(c3)NC(=O)CO4)CC2)cc1 (single isomer, unassigned) [Example 132, 6-[4-[(S or R)-(4-Methylsulfonylphenyl)-phenyl-methyl]piperidine-1-carbonyl]-4H-1,4-benzoxazin-3-one]
4.16	–	COc1ccc(C(c2ccccc2)C2CCN(C(=O)c3ccc4c(c3)NC(=O)CO4)CC2)cc1OCCF (single isomer, unassigned) [Example 135, 6-[4-[(R or S)-[3-(2-Fluoroethoxy)-4-methoxy-phenyl]-phenyl-methyl]piperidine-1-carbonyl]-4H-1,4-benzoxazin-3-one]
85.3	–	O=C1COc2ccc(C(=O)N3CC(C(c4ccccc4)c4ccc(C(F)(F)F)cc4)C3)cc2N1 (stereo not drawn) [Example 130, 6-[3-[Phenyl-[4-(trifluoromethyl)phenyl]methyl]azetidine-1-carbonyl]-4H-1,4-benzoxazin-3-one]
–	20	COc1ccc2[nH]cc(C3CCN(C(=O)c4ccc5c(c4)NC(=O)CO5)CC3)c2c1 [Example 24, 6-[4-(5-methoxy-1H-indol-3-yl)piperidine-1-carbonyl]-4H-1,4-benzoxazin-3-one]
–	1320	O=C1COc2ccc(C(=O)N3CCN(c4cc(Cl)cc(Cl)c4)CC3)cc2N1 [Example 87, 6-[4-(3,5-dichlorophenyl)piperazine-1-carbonyl]-4H-1,4-benzoxazin-3-one]
–	390	O=C1COc2ccc(C(=O)N3CCC(c4cc(-c5ccc(Cl)cc5)[nH]n4)CC3)cc2N1 [Example 44, 6-[4-[5-(4-chlorophenyl)-1H-pyrazol-3-yl]piperidine-1-carbonyl]-4H-1,4-benzoxazin-3-one]
–	6.4	COc1cc(C(=O)N2CCC(C(c3ccc(F)cc3)c3ccc(F)cc3)CC2)cc2c1CCC(=O)N2 [Example 100, 7-[4-[Bis(4-fluorophenyl)methyl]piperidine-1-carbonyl]-5-methoxy-3,4-dihydro-1H-quinolin-2-one]
–	4.8	O=C1COc2ccc(C(=O)N3CCC(C(c4ccc(F)cc4)c4cccc(F)n4)CC3)cc2N1 (single isomer, unassigned) [Example 118, 6-[4-[(S or R)-(4-fluorophenyl)-(6-fluoro-2-pyridyl)methyl]piperidine-1-carbonyl]-4H-1,4-benzoxazin-3-one]
–	4	COc1ccc([C@H](c2ccccc2)C2CCN(C(=O)c3ccc4c(c3)NC(=O)CO4)CC2)cc1OC (single isomer, unassigned) [Example 8]
–	0.4	COc1cccc([C@H](c2ccccc2)C2CCN(C(=O)c3ccc4c(c3)NC(=O)CO4)CC2)c1 (single isomer, unassigned) [Example 12]
–	1.1	Cc1ccc([C@@H](c2ccccc2)C2CCN(C(=O)c3ccc4c(c3)NC(=O)CO4)CC2)cc1 (single isomer, unassigned) [Example 15]
–	0.6	COc1ccc([C@@H](c2ccccc2)C2CCN(C(=O)c3ccc4c(c3)NC(=O)CO4)CC2)cc1 (single isomer, unassigned) [Example 11]
–	2.8	Cn1cc(C2CCN(C(=O)c3ccc4c(c3)NC(=O)CO4)CC2)c2cc(Cl)c(F)cc21 [Example 27, 6-[4-(5-chloro-6-fluoro-1-methylindol-3-yl)piperidine-1-carbonyl]-4H-1,4-benzoxazin-3-one]
–	1	Cn1cc(C2CCN(C(=O)c3cc4c(cc3F)OCC(=O)N4)CC2)c2cc(Cl)ccc21 [Example 28, 6-[4-(5-chloro-1-methylindol-3-yl)piperidine-1-carbonyl]-7-fluoro-4H-1,4-benzoxazin-3-one]
–	0.4	COc1cccc(C(c2ccc(F)cc2)C2CCN(C(=O)c3ccc4c(c3)NC(=O)CO4)CC2)c1 (single isomer, unassigned) [Example 121, 6-[4-[(S or R)-(4-Fluorophenyl)-(3-methoxyphenyl)methyl]piperidine-1-carbonyl]-4H-1,4-benzoxazin-3-one]
–	1.4	O=C1COc2ccc(C(=O)N3CCC([C@@H](c4ccc(F)cc4)c4cccc(OCCOCCF)c4)CC3)cc2N1 (single isomer, unassigned) [Example 95, 6-[4-[(R or S)-[3-[2-(2-fluoroethoxy)ethoxy]phenyl]-(4-fluorophenyl)methyl]piperidine-1-carbonyl]-4H-1,4-benzoxazin-3-one]
–	2.2	O=C1COc2ccc(C(=O)N3CCC(C(c4ccccc4)c4ccc(F)nc4)CC3)cc2N1 (single isomer, unassigned) [Example 103, 6-[4-[(R or S)-(6-Fluoro-3-pyridyl)-phenyl-methyl]piperidine-1-carbonyl]-4H-1,4-benzoxazin-3-one]
–	2.7	COc1cc(C(=O)N2CCC(C(c3ccccc3)c3ccccc3)CC2)cc2c1CCC(=O)N2 [Example 101, 7-(4-Benzhydrylpiperidine-1-carbonyl)-5-methoxy-3,4-dihydro-1H-quinolin-2-one]
–	0.4	Cc1ccc(C(c2ccc(F)cc2)C2CCN(C(=O)c3ccc4c(c3)NC(=O)CO4)CC2)cc1 (single isomer, unassigned) [Example 113, 6-[4-[(R or S)-(4-Fluorophenyl)-(p-tolyl)methyl]piperidine-1-carbonyl]-4H-1,4-benzoxazin-3-one]
–	15	O=C1COc2ccc(C(=O)N3CCC(C(O)(c4ccccc4)c4ccccc4)CC3)cc2N1 [Example 5, 6-[4-[Hydroxy(diphenyl)methyl]piperidine-1-carbonyl]-4H-1,4-benzoxazin-3-one]
–	1.8	Cn1cc(C2CCN(C(=O)c3cc4c(cc3F)OCC(=O)N4)CC2)c2cc(Cl)c(F)cc21 [Example 26, 6-[4-(5-chloro-6-fluoro-1-methylindol-3-yl)piperidine-1-carbonyl]-7-fluoro-4H-1,4-benzoxazin-3-one]
–	0.73	O=C1COc2ccc(C(=O)N3CCC(C(c4ccccc4)c4ccc(OCCF)cc4)CC3)cc2N1 (stereo not drawn) [Example 73, 6-[4-[[4-(2-fluoroethoxy)phenyl]-penyl-methyl]piperidine-1-carbonyl]-4H-1,4-benzoxazin-3-one]
–	68	O=C1COc2ccc(C(=O)N3CCC(C4(c5ccccc5)CC4)CC3)cc2N1 [Example 55, 6-[4-(1-phenylcyclopropyl)piperidine-1-carbonyl]-4H-1,4-benzoxazin-3-one]
–	0.5	Cc1cccc([C@H](c2ccccc2)C2CCN(C(=O)c3ccc4c(c3)NC(=O)CO4)CC2)c1 (single isomer, unassigned) [Example 16]
